Read-outs that look alike come from different tables or passages of the source.
Assays:
[1] = Tolerability in CD1 mice: liver function, ALT, AST, bilirubin, albumin (Example 33); conditions: plasma, 50 mg/kg s.c. twice a week
Method: (§2) A control group of five mice was injected subcutaneously with PBS for 2 weeks. All experimental groups (i.e. ASO treated mice at 2, 4, 6 weeks) were compared to the control group (i.e. PBS, 2 weeks).
To evaluate the effect of ISIS oligonucleotides on hepatic function, plasma concentrations of transaminases were measured using an automated clinical chemistry analyzer (Hitachi Olympus AU400e, Melville, N.Y.). […] Plasma levels of bilirubin and albumin were also measured using the same clinical chemistry analyzer and expressed in mg/dL.

fibrinogen = test: Fibrinogen assay (Example 45); assay type: in vivo, cynomolgus monkeys; conditions: plasma
Method: (§1) Groups, each consisting of two male and three female monkeys, were injected subcutaneously with ISIS 416838, ISIS 416850, ISIS 416858, ISIS 416864, or ISIS 417002 in escalating doses. Antisense oligonucleotide was administered to the monkeys at 5 mg/kg three times per a week for week 1; 5 mg/kg twice per week for weeks 2 and 3; 10 mg/kg three times per week for week 4; 10 mg/kg twice per week for weeks 5 and 6; 25 mg/kg three times per week for week 7; and 25 mg/kg twice per week for weeks 8, 9, 10, 11, and 12. One control group, consisting of two male and three female monkeys, was injected subcutaneously with PBS according to the same dosing regimen. An additional experimental group, consisting of two male and three female monkeys, was injected subcutaneously with ISIS 416850 in a chronic, lower dose regimen. Antisense oligonucleotide was administered to the monkeys at 5 mg/kg three times per week for week 1; 5 mg/kg twice per week for week 2 and 3; 10 mg/kg three times per week for week 4; and 10 mg/kg twice per week for weeks 5 to 12. Body weights were measured weekly. Blood samples were collected 14 days and 5 days before the start of treatment and subsequently once per week for Factor 11 protein activity analysis in plasma, fibrinogen measurement, PT and aPTT measurements, bleeding times, and measurement of various hematologic factors. On day 85, the monkeys were euthanized by exsanguination while under deep anesthesia, and organs harvested for further analysis.
Nine parts of fresh monkey plasma was collected into one part of trisodium citrate. The samples were evaluated of fibrinogen content using an ACL 9000 coagulation instrument (Instrumentation Laboratory, Italy). The ISIS oligonucleotide, ISIS 416850, given with the chronic dose regimen is distinguished from the other oligonucleotides with an asterisk (*).

[2] = Bleeding assay, Surgicutt Jr. device (Example 45); assay type: in vivo, cynomolgus monkeys; parameters: unit not given here
Method: as §1
On different days during the treatment period, bleeding assay was performed using a Surgicutt Jr. device (ITC, New Jersey). Monkeys were placed in monkey chair with their arm placed in a steady support. The arm was lightly shaved and a sphygmomanometer was placed on the upper arm. The cuff of the sphygmomanometer was inflated to 40 mm Hg and this pressure was maintained throughout the procedure. The area on the upper arm to be incised was cleansed with an antiseptic swab and the Surgicutt Jr device was used to make an incision over the lateral aspect, volar surface of the forearm, parallel to and 5 cm below the antecubital crease. At the exact moment the incision was made, a stopwatch was started. Every 30 seconds, blood from the incision was blotted out using a blotting paper without directly touching the incision, so that formation of the platelet plug was not disturbed. Blood was blotted out every 30 seconds until blood no longer stained the paper. The stopwatch was then stopped and the bleeding time determined. The sphygmomanometer was removed from the animal's arm, the incision site was antiseptically swabbed and a wound closure strip applied. The ISIS oligonucleotide, ISIS 416850, given with the chronic dose regimen is distinguished from the other oligonucleotides with an asterisk (*).

[3] = Tolerability in CD1 mice: kidney function, BUN, creatinine (Example 33); conditions: plasma, 50 mg/kg s.c. twice a week
Method: as §2
To evaluate the effect of ISIS oligonucleotides on kidney function, plasma concentrations of blood urea nitrogen (BUN) and creatinine were measured using an automated clinical chemistry analyzer (Hitachi Olympus AU400e, Melville, N.Y.).

[4] = mouse, in vivo, sc, 50 mg/kg
[5] = day 15, chronic dose regimen (*)
[6] = day 15, escalating dose regimen
[7] = day 22, chronic dose regimen (*)
[8] = day 22, escalating dose regimen
[9] = day 29, escalating dose regimen
[10] = day 36, chronic dose regimen (*)
[11] = day 36, escalating dose regimen
[12] = day 43, chronic dose regimen (*)
[13] = day 43, escalating dose regimen
[14] = day 50, escalating dose regimen
[15] = day 57, escalating dose regimen
[16] = day 64, escalating dose regimen
[17] = day 71, escalating dose regimen
[18] = day 78, escalating dose regimen
[19] = day 85, escalating dose regimen
[20] = day −5, chronic dose regimen (*)
[21] = day −5, escalating dose regimen
[22] = day −14, chronic dose regimen (*)
[23] = day −14, escalating dose regimen

Q: Which results are given for “ISIS 416850: MOE gapmer, nucleobases 1275 to 1318 of SEQ ID NO: 1 (Table 8) (antisense TGCACAGTTTCTGGCAGGCC; MOE gapmer, wing and gap sizes not given here)”?
A: ALT ([1]; 2 weeks): 67 IU/L; AST ([1]; 2 weeks): 72 IU/L; Albumin ([1]; 2 weeks): 3.6; Bilirubin ([1]; 2 weeks): 0.46 mg/dL; ALT ([1]; 4 weeks): 58 IU/L; AST ([1]; 4 weeks): 88 IU/L; Albumin ([1]; 4 weeks): 3.5; Bilirubin ([1]; 4 weeks): 0.23 mg/dL; ALT ([1]; 6 weeks): 102 IU/L; AST ([1]; 6 weeks): 97 IU/L; Albumin ([1]; 6 weeks): 3.1; Bilirubin ([1]; 6 weeks): 0.22 mg/dL; fibrinogen levels (fibrinogen; day 8, chronic dose regimen (*)): 232 mg/dL; fibrinogen levels (fibrinogen; day 8, escalating dose regimen): 281 mg/dL; fibrinogen levels (fibrinogen; [5]): 174 mg/dL; fibrinogen levels (fibrinogen; [6]): 270 mg/dL; fibrinogen levels (fibrinogen; [7]): 192 mg/dL; fibrinogen levels (fibrinogen; [8]): 243 mg/dL; fibrinogen levels (fibrinogen; day 29, chronic dose regimen (*)): 192 mg/dL; fibrinogen levels (fibrinogen; [9]): 234 mg/dL; fibrinogen levels (fibrinogen; [10]): 185 mg/dL; fibrinogen levels (fibrinogen; [11]): 232 mg/dL; fibrinogen levels (fibrinogen; [12]): 194 mg/dL; fibrinogen levels (fibrinogen; [13]): 219 mg/dL; fibrinogen levels (fibrinogen; day 50, chronic dose regimen (*)): 204 mg/dL; fibrinogen levels (fibrinogen; [14]): 215 mg/dL; fibrinogen levels (fibrinogen; [15]): 186 mg/dL; fibrinogen levels (fibrinogen; [16]): 190 mg/dL; fibrinogen levels (fibrinogen; [17]): 178 mg/dL; fibrinogen levels (fibrinogen; [18]): 177 mg/dL; fibrinogen levels (fibrinogen; [19]): 187 mg/dL; fibrinogen levels (fibrinogen; [20]): 227 mg/dL; fibrinogen levels (fibrinogen; [21]): 261 mg/dL; fibrinogen levels (fibrinogen; [22]): 274 mg/dL; fibrinogen levels (fibrinogen; [23]): 310 mg/dL; bleeding time [2, 5]: 149; bleeding time [2, 6]: 165; bleeding time [2, 7]: 143; bleeding time [2, 8]: 151; bleeding time [2, 10]: 221; bleeding time [2, 11]: 137; bleeding time [2, 12]: 156; bleeding time [2, 13]: 216; bleeding time [2, 15]: 195; bleeding time [2, 16]: 201; bleeding time [2, 18]: 203; bleeding time [2, 19]: 201; bleeding time [2, 20]: 93; bleeding time [2, 21]: 127; bleeding time [2, 22]: 177; bleeding time [2, 23]: 172; BUN ([3]; 2 weeks): 25 mg/dL; Creatinine ([3]; 2 weeks): 0.13 mg/dL; BUN ([3]; 4 weeks): 30 mg/dL; Creatinine ([3]; 4 weeks): 0.22 mg/dL; BUN ([3]; 6 weeks): 23 mg/dL; Creatinine ([3]; 6 weeks): 0.19 mg/dL; ALT [4]: 75 IU/L; AST [4]: 99 IU/L; Bilirubin [4]: 0.21 mg/dL; Cholesterol [4]: 142 mg/dL

Q: What does the source list for “ISIS 416858: MOE gapmer, nucleobases 1275 to 1318 of SEQ ID NO: 1 (Table 8) (antisense ACGGCATTGGTGCACAGTTT; MOE gapmer, wing and gap sizes not given here)”?
A: ALT ([1]; 2 weeks): 190 IU/L; AST ([1]; 2 weeks): 236 IU/L; Albumin ([1]; 2 weeks): 3.4; Bilirubin ([1]; 2 weeks): 0.57 mg/dL; ALT ([1]; 4 weeks): 57 IU/L; AST ([1]; 4 weeks): 108 IU/L; Albumin ([1]; 4 weeks): 3.5; Bilirubin ([1]; 4 weeks): 0.24 mg/dL; ALT ([1]; 6 weeks): 216 IU/L; AST ([1]; 6 weeks): 178 IU/L; Albumin ([1]; 6 weeks): 2.8; Bilirubin ([1]; 6 weeks): 0.16 mg/dL; fibrinogen levels (fibrinogen; day 8, escalating dose regimen): 246 mg/dL; fibrinogen levels (fibrinogen; [6]): 219 mg/dL; fibrinogen levels (fibrinogen; [8]): 222 mg/dL; fibrinogen levels (fibrinogen; [9]): 220 mg/dL; fibrinogen levels (fibrinogen; [11]): 225 mg/dL; fibrinogen levels (fibrinogen; [13]): 229 mg/dL; fibrinogen levels (fibrinogen; [14]): 259 mg/dL; fibrinogen levels (fibrinogen; [15]): 225 mg/dL; fibrinogen levels (fibrinogen; [16]): 236 mg/dL; fibrinogen levels (fibrinogen; [17]): 239 mg/dL; fibrinogen levels (fibrinogen; [18]): 234 mg/dL; fibrinogen levels (fibrinogen; [19]): 243 mg/dL; fibrinogen levels (fibrinogen; [21]): 246 mg/dL; fibrinogen levels (fibrinogen; [23]): 277 mg/dL; bleeding time [2, 6]: 146; bleeding time [2, 8]: 100; bleeding time [2, 11]: 206; bleeding time [2, 13]: 111; bleeding time [2, 15]: 138; bleeding time [2, 16]: 113; bleeding time [2, 18]: 186; bleeding time [2, 19]: 191; bleeding time [2, 21]: 149; bleeding time [2, 23]: 154; BUN ([3]; 2 weeks): 21 mg/dL; Creatinine ([3]; 2 weeks): 0.13 mg/dL; BUN ([3]; 4 weeks): 29 mg/dL; Creatinine ([3]; 4 weeks): 0.23 mg/dL; BUN ([3]; 6 weeks): 19 mg/dL; Creatinine ([3]; 6 weeks): 0.10 mg/dL; ALT [4]: 640 IU/L; AST [4]: 547 IU/L; Bilirubin [4]: 0.28 mg/dL; Cholesterol [4]: 181 mg/dL

From US20230263822A1, “MODULATION OF FACTOR 11 EXPRESSION” (Ionis Pharmaceuticals, Inc., priority 2008, published 2023)
